Values of other authors as cited in patent US10342765B2, “Therapeutic compositions comprising monoterpenes” (priority 2009, dated 2019).
Entries after “also recorded” stand apart in the source; their conditions may differ.

Legend:
malignant gliomas = settings: patients with malignant gliomas; nasal inhalation
[1] = nasal inhalation; nasal inhaler four times daily
[2] = test system: systemic malignancies including breast, lung, pancreatic, melanomas

Compound: C=C(C)[C@@H]1CC=C(CO)CC1 [POH, perillyl alcohol]
- tumor size (radiographic) (malignant gliomas): radiographic reduction in tumor size
- tolerability in patients [1]: safely tolerated; also recorded: well tolerated, with minimal side effects
- effectiveness against systemic malignancies [2]: effective
